Some test systems named below: T-47D breast; MDA-MB-435; PC-3 prostate; K-562 leukemia; SF-539 CNS; SW-620 colon; HCT-15 colon; OVCAR-5 ovarian; A549 NSCLC; HL-60(TB) leukemia.
What all share (assay): NCI anticancer screen, dose series, 48 h

Where “and” joins values, the source holds several entries; their conditions need not be identical. Equal entries are not always repeated.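 The compound was tested at five concentrations on cells cultured in 96-well plates, with a 48-hour exposure period. GI50 = concentration required for 50% inhibition of growth. TGI marks complete inhibition of growth.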

With `Cc1cc(=O)oc2ccc(OC/C=C3\CCC(=O)O3)cc12`, the GI50 is 2.6 µM with T-47D breast; 7.65 µM in the experiment on MDA-MB-435; 3.59 µM in the experiment with PC-3 prostate; 7.79 µM with K-562 leukemia; 7.95 µM in the experiment on SF-539 CNS; 3.87 µM with SW-620 colon. Also, the values for the GI50 with HCT-15 colon, in the experiment with OVCAR-5 ovarian and in the experiment with A549 NSCLC were 3.5 µM, 14.8 µM and 17 µM, respectively. For the same compound, the TGI is 19.6 µM in the experiment with T-47D breast; 22.8 µM with MDA-MB-435; 21.2 µM in the experiment on PC-3 prostate; above 100 µM in the experiment on K-562 leukemia; 25.5 µM in the experiment on SF-539 CNS; 17.5 µM in the experiment with SW-620 colon. In addition, the TGI in the experiment with HCT-15 colon is 11.5 µM; in the experiment on OVCAR-5 ovarian, 31.2 µM; with A549 NSCLC, 33 µM.

With `Cn1cc(/C=C\[N+](=O)[O-])c2ccccc21`, the GI50 is 55.6 µM with T-47D breast; 27.7 µM in the experiment with MDA-MB-435; 35.5 µM in the experiment on PC-3 prostate; 34.8 µM with K-562 leukemia; 23.5 µM in the experiment on SF-539 CNS; 44.3 µM in the experiment with HCT-15 colon. For the same compound, the GI50 in the experiment with OVCAR-5 ovarian is above 100 µM; with A549 NSCLC, 46.4 µM. For the same compound, the TGI is above 100 µM in the experiment with T-47D breast; 84.7 µM with MDA-MB-435; above 100 µM with PC-3 prostate; above 100 µM in the experiment on K-562 leukemia; 49.1 µM in the experiment with SF-539 CNS; above 100 µM in the experiment on HCT-15 colon. Moreover, the TGI with OVCAR-5 ovarian and in the experiment on A549 NSCLC was above 100 µM in each case.

For the compound `COc1cc(/C=C/C(=O)c2cccc(-n3cc(-c4cc(OC)c(OC)c(OC)c4)[nH]c3=O)c2)cc(OC)c1OC`, the GI50 in the experiment with T-47D breast is 3.08 µM; in the experiment with MDA-MB-435, 2.11 µM; with PC-3 prostate, 2.63 µM; in the experiment with K-562 leukemia, 0.591 µM; in the experiment with HL-60(TB) leukemia, 0.922 µM; with SF-539 CNS, 3.12 µM. Moreover, the GI50 was 1.89 µM with HCT-15 colon, 4.38 µM in the experiment with OVCAR-5 ovarian and 3.03 µM in the experiment with A549 NSCLC. For the same compound, the TGI in the experiment with T-47D breast was 22.8 µM; in the experiment with MDA-MB-435 it was 9.92 µM; with PC-3 prostate, 18.6 µM; in the experiment with K-562 leukemia it was above 100 µM; in the experiment with HL-60(TB) leukemia it was 6.39 µM; in the experiment on SF-539 CNS it was 18 µM. The TGI in the experiment with HCT-15 colon worked out at 7.51 µM; in the experiment on OVCAR-5 ovarian it was 13.4 µM; in the experiment with A549 NSCLC, 18.5 µM.

Regarding `O=C1Nc2ccc(Br)cc2C12CC(c1ccccc1)=NN2` (stereo not given), the GI50 was 5.48 µM with T-47D breast; 2.28 µM with PC-3 prostate; 2.84 µM in the experiment with K-562 leukemia; 2.77 µM in the experiment with HL-60(TB) leukemia; 2.1 µM in the experiment on SF-539 CNS; 3.87 µM in the experiment on SW-620 colon. The GI50 is 3.56 µM in the experiment with HCT-15 colon, 16.7 µM in the experiment with OVCAR-5 ovarian and 4.53 µM in the experiment with A549 NSCLC. The TGI with T-47D breast was above 100 µM; in the experiment on PC-3 prostate it was 18.4 µM; in the experiment with K-562 leukemia, 31 µM; in the experiment on HL-60(TB) leukemia, 8.47 µM; in the experiment with SF-539 CNS it was 6.02 µM; in the experiment on SW-620 colon, 23.8 µM. Besides, the results for the TGI in the experiment with HCT-15 colon, in the experiment with OVCAR-5 ovarian and in the experiment on A549 NSCLC were 48.8 µM, above 100 µM and above 100 µM, respectively.

Turning to `COC1=C(N)C(=O)c2nc(-c3nc(C(=O)O)c(C)c(-c4ccc(OC)c(OC)c4O)c3N)ccc2C1=O`, the GI50 in the experiment with MDA-MB-435 is 0.0266 µM and 0.0104 µM; in the experiment on PC-3 prostate it was 0.0298 µM; with K-562 leukemia, 0.0237 µM and 0.0112 µM and < 0.01 µM; with SW-620 colon, 0.00124 µM and 0.00653 µM; in the experiment with HCT-15 colon it was 0.00144 µM and 0.00832 µM and < 0.01 µM; in the experiment with OVCAR-5 ovarian, 0.00332 µM and 0.00352 µM and 0.0143 µM. In addition, the GI50 with A549 NSCLC was 0.00135 µM and 0.00894 µM. Further, the TGI was 0.203 µM and 0.0292 µM and 0.0228 µM in the experiment on PC-3 prostate; 0.277 µM and 0.102 µM and 0.0281 µM in the experiment with K-562 leukemia; 0.00499 µM and 0.0204 µM with HL-60(TB) leukemia; 0.00424 µM and 0.0268 µM and 0.0181 µM in the experiment with SW-620 colon; 0.00428 µM and 0.0325 µM and 0.0216 µM in the experiment with A549 NSCLC.

In the case of `COc1ccc(-c2cc(=O)c3c(O)c(OC)c(OC)c(OC)c3o2)cc1OC`, the TGI in the experiment with T-47D breast, with PC-3 prostate, with K-562 leukemia, in the experiment on HL-60(TB) leukemia, with SF-539 CNS and with HCT-15 colon was above 100 µM each time. Also, the TGI in the experiment with OVCAR-5 ovarian and in the experiment on A549 NSCLC was above 100 µM throughout.

Consider `NC(N)=N/N=C/c1c(-c2ccsc2)nc2n1CCS2`, for which the GI50 in the experiment with T-47D breast is 30 µM; in the experiment on MDA-MB-435, 19.8 µM; in the experiment on PC-3 prostate, 17.5 µM; in the experiment on K-562 leukemia, 22.2 µM; in the experiment with SF-539 CNS, 14.4 µM; with SW-620 colon it was 33.2 µM. The GI50 with HCT-15 colon was 24.7 µM; with OVCAR-5 ovarian, 19.9 µM; with A549 NSCLC it was 73.7 µM. The TGI was 66.3 µM in the experiment with T-47D breast; 47.9 µM with MDA-MB-435; 39.2 µM in the experiment with PC-3 prostate; 65.8 µM in the experiment with K-562 leukemia; 30.3 µM in the experiment on SF-539 CNS; above 100 µM in the experiment with SW-620 colon. Further, the values for the TGI in the experiment with HCT-15 colon, with OVCAR-5 ovarian and in the experiment with A549 NSCLC were 72.7 µM, 48.2 µM and above 100 µM, respectively.

`O=C(O)C1=C/C(=C(/c2ccccc2)c2cc(C(=O)O)c(O)c3ccccc23)c2ccccc2C1=O`: the TGI in the experiment on T-47D breast, with MDA-MB-435, in the experiment on PC-3 prostate, in the experiment with K-562 leukemia, in the experiment on SF-539 CNS and in the experiment on SW-620 colon was above 100 µM throughout. The TGI in the experiment on HCT-15 colon, in the experiment on OVCAR-5 ovarian and in the experiment on A549 NSCLC was above 100 µM in each case.

As for `CCN(CC)c1ccc(/C=C/C(=O)c2ccc(Nc3nc(Nc4ccccc4)nc(Nc4ccccc4)n3)cc2)cc1`, the GI50 in the experiment on T-47D breast is 2.65 µM; in the experiment on MDA-MB-435, 9.26 µM; with PC-3 prostate, 3.2 µM; in the experiment with HL-60(TB) leukemia it was 18 µM; in the experiment on SF-539 CNS, 9.08 µM; in the experiment on SW-620 colon, 31.2 µM. Further, the values for the GI50 in the experiment on HCT-15 colon, in the experiment on OVCAR-5 ovarian and with A549 NSCLC were 2.54 µM, 17.5 µM and 12.8 µM, respectively. Besides, the TGI with T-47D breast is 41 µM; with MDA-MB-435, above 100 µM; with PC-3 prostate, 18.6 µM; with HL-60(TB) leukemia it was above 100 µM; with SF-539 CNS, above 100 µM; in the experiment with SW-620 colon, above 100 µM. Further, the TGI in the experiment on HCT-15 colon is above 100 µM; in the experiment with OVCAR-5 ovarian, above 100 µM; in the experiment on A549 NSCLC, 78.1 µM.
